Values of other authors in US20100215723A1, “Wound Dressing with Antimicrobial Gauze and Bonding Agent” (priority 2009, published 2010).

Columns and labels:
pseudomonas aeruginosa = conditions: stated as known
aspergillus niger = conditions: stated as known

Substance: Polyhexamethylene biguanide [PHMB]
- indicative MIC value (pseudomonas aeruginosa): 100 ppm
- indicative MIC value (aspergillus niger): 750 ppm
